Patent US20030166721A1, “Choline derivative for the treatment of alzheimer's disease” (priority 2000, published 2003)

Target: T1, Choline Specific Transport System (HUCT) (Rattus norvegicus, UniProt Q9JMD7)
T1 construct: from tissue; host or cells: brain of living Wistar rats (in vivo, ICV microinfusion, EEG read-out)
T1 sequence (Q9JMD7 1-580): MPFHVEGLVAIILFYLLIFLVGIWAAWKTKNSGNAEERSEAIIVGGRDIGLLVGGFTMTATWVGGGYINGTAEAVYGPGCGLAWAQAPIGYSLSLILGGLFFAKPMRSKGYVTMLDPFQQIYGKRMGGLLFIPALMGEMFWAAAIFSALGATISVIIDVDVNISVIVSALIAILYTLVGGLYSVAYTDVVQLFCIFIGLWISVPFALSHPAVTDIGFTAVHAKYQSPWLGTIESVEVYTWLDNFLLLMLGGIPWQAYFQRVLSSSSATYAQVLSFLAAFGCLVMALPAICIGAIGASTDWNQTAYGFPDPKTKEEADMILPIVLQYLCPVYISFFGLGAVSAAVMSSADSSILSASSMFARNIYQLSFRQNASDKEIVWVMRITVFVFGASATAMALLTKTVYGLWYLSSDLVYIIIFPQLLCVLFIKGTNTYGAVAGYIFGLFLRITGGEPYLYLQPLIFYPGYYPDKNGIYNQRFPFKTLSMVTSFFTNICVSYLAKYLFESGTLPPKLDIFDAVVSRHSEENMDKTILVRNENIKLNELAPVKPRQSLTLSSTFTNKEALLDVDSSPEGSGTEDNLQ
Assay: EEG after ICV Hemicholinium-3 (choline uptake blocker) pretreatment
Assay type: in vivo
Conditions: rats, i.p. at the active dose after Hch3 pretreatment
Method: FIG. 4B—Effect on EEG spectrum power after treatment with PC-1 (5 mg i.p.) administered 15 min after microinfusion of Hch3 (0.1 ng/0.5 μl) in the III ventricule. As in FIG. 4a, time (min) is reported in abscissa, the EEG spectrum power expressed as μV^2/s is reported in ordinate. Graphics report the EEG spectrum total power (0.25-16 Hz).

## CC(C)(C)C(=O)OCC[N+](C)(C)C.[I-] [PC-1, pivaloylcholine iodide]
  Alert response and EEG desynchronization after Hch3 pretreatment: induced neither alert response not EEG desynchronization
